Source: publication PMC12495412, “Coumarin/nitrogen-bearing heterocyclic hybrid-loaded electrospun PMMA/PVP nanofibrous scaffolds for accelerating topical wound healing rates: synthesis and in vitro bio-evaluation” (RSC Advances, 2025)
In brackets after ≈: the same amount, converted by molar mass. Marks after values point to notes of the source that are not given here.

What was measured:
all applied pathogens = assay: Agar-well diffusion of synthesized compounds, whole panel; format: cell-based
Source text: The antimicrobial activity of the prepared compounds was estimated through an agar-well diffusion method as adapted from the modified Kirby–Bauer protocol.[24] In this test, microbial pathogens were applied, including Staphylococcus aureus ATCC 25923 (S. aureus), Streptococcus mutans ATCC 25175 (S. mutans), Bacillus cereus ATCC 19637 (B. cereus), Bacillus aureus ATCC 25923 (B. aureus), Bacillus epidermidis ATCC 14990 (B. epidermidis), and Bacillus subtilis ATCC 11774 (B. subtilis) as Gram-positive bacteria, and Pseudomonas aeruginosa ATCC 27853 (P. aeruginosa), Klebsiella pneumonia ATCC 13883 (K. pneumonia), and Salmonella typhimurium ATCC 14028 (S. typhimurium), Salmonella pneumoniae ATCC 10031(S. pneumoniae), Escherichia coli ATCC 10536 (E. coli), and Salmonella paratyphi ATCC 9150 (S. paratyphi) as Gram-negative bacteria. Additionally, Candida albicans (ATCC 10231), Candida krusei ATCC 6258 (C. krusei), Candida glabrata ATCC 66032 (C. glabrata), andCandida parapsilosis ATCC 22019 (C. parapsilosis) were applied as models of unicellular fungi. The pre-inoculation cultures of the pathogens were prepared on Muller–Hinton broth and cultivated for 24 h at 37 °C. The agar-well test was prepared on Muller–Hinton agar with 100 μL of each pathogen pre-culture (0.5 McFarland conc.) and uniformly distributed on the plate surface. Under aseptic conditions, six wells were created on the agar surface using a sterile corkborer (9 mm). To each well, 100 μL of the prepared compound (10 mg mL^−1) was separately inserted into each plate. All plates were incubated for 24 h at 37 °C; the established inhibition zones (Halo-zones) surrounding the wells indicated positive antimicrobial activity and were stated as the radius of the inhibition zone (mm).

MDA cells = assay: MTT anticancer assay; format: cell-based, human; conditions: 48 h
Source text: (§1) MTT assay: the normal cell line (Wi-38), colon cancer (Caco-2), lung cancer (A549), and breast cancer (MDA) cell lines were sourced from ATCC, USA. All different cell lines were cultivated and preserved in DMEM medium (SERANA, Germany), accompanied by 10% FBS (Gibco, USA) and 1% Pen/Strep solution (Lonza, USA). The newly prepared derivatives at various doses were considered for their anticancer activity and their safety on normal cells, applying MTT (3-[4, 5-dimethylthiazol]-2, 5-diphenyltetrazolium bromide) methods.[22] At first, all normal and cancer cell lines (1.0 ×10^4) were inoculated in 4 antiseptic 96-well tissue culture microplates and incubated for 24 h in a CO2 incubator. After cell attachments, the prepared derivatives were added to both normal Wi-38 cells at diverse concentrations of (6.25–200 μg mL^−1, 2-fold) and cancer cells at different concentrations of (3.125–100 μg mL^−1, 2-fold) in triplicate and incubated for another 48 h at 37 °C in a CO2 incubator with an adjusted concentration of 5%. After that, the treated cells were cleaned three times with PBS to remove debris and dead cells. Next, 200 μL of 0.5 mg mL^−1 MTT dye solution in PBS was mixed in each well, and the cells were further kept for 3 h at 37 °C in a 5% CO2 incubator. After that, MTT was removed and 200 μL of DMSO was added to each well. The optical density (OD) was recorded at 570 nm via a microplate reader (B.M.G. LabTech, Germany). Basic cells (untreated) were utilized as negative control cells, and 5-fluorouracil (5-FU) was included as a standard chemotherapy drug. The qualified cell viability (%) was evaluated as in equation (eqn (1)):1 Relative cell viability (%) = […] A1 is the OD of the examined derivative, A0 is the OD of the standard, and AU is the OD of the untreated cells.
(§2) Anticancer activity assay: the anticancer effect of each derivative was assessed by evaluating the half-maximal inhibitory concentration (IC50) value via the GraphPad Prism 7.0 software. However, SI (selective index) values of each derivative were estimated by splitting the IC50 value of healthy cells by the IC50 value of malignant cells, as previously reported.[23] The effects of the created derivatives on the morphology of MDA cells were evaluated at IC50 doses and captured by phase-contrast microscopy (Olympus, Germany) in comparison to untreated control cells.

A549 cells [1] = assay: MTT anticancer assay; format: cell-based, human; conditions: 48 h
Source text: as §1, §2

Wi-38 cells = assay: MTT cytotoxicity assay, normal cells; format: cell-based; conditions: 48 h
Source text: as §1, §2

A549 cells [2] = assay: Wound healing scratch (anti-migration) assay; format: cell-based, human; conditions: IC50 doses, 48 h
Procedure: To assess the anti-migration inhibition capability of newly synthesized derivatives, a wound healing technique was employed. A549 cells were planted in 12-well plates and kept alive at 37 °C until they achieved 80–90% fluency. The cell monolayers were smashed with a sterile tip and exposed to the prepared derivatives at IC50 doses. At 0 and 48 h of treatment, the wound closure area was captured and calculated by imaging analysis with the Cell-Sens software (Olympus, Japan).

Caco-2 cells = assay: MTT anticancer assay; format: cell-based; conditions: for SI Caco-2: IC50 Wi-38 / IC50 Caco-2
Source text: as §1, §2

Candida glabrata [3] = assay: Biofilm inhibition test (spectrophotometric); format: cell-based; conditions: 24 h, 37 °C, OD vs untreated
Procedure: (§3) Additionally, a spectrophotometric antibiofilm assay was utilized to determine whether the evaluated formulations might inhibit the growth of pathogens. Fresh nutritional broth was inoculated with each pathogen separately, and this mixture was then incubated at 37 °C at 200 rpm. The optical density (OD) at 600 nm was measured over a 6 h incubation period, allowing for an estimation of the starting microbe's exponential phase (3 × 10^7 CFU mL^−1). To produce treated cultures, 900 μL of planktonic cultures were collected aseptically with 100 μL of each formulation. Furthermore, untreated (formula-free) cultures of pathogens were grown as controls. The cultures were then incubated for 24 hours at 200 rpm and 37 °C. Through spectroscopic evaluation of microbial turbidity, the inhibitory effects of the examined formulations were determined.[27] By comparing the OD of the treated sample with the matching controls, anti-biofilm percentages for each formula were computed.[28]

Escherichia coli [4] = assay: Biofilm inhibition test (spectrophotometric); format: cell-based; conditions: 24 h, 37 °C, OD vs untreated
Procedure: as §3

Klebsiella pneumoniae [5] = assay: Biofilm inhibition test (spectrophotometric); format: cell-based; conditions: 24 h, 37 °C, OD vs untreated
Procedure: as §3

Staphylococcus aureus [6] = assay: Biofilm inhibition test (spectrophotometric); format: cell-based; conditions: 24 h, 37 °C, OD vs untreated
Procedure: as §3

Candida krusei [7] = assay: Biofilm inhibition test (spectrophotometric); format: cell-based; conditions: 24 h, 37 °C, OD vs untreated
Procedure: as §3

Salmonella paratyphi [8] = assay: Biofilm inhibition test (spectrophotometric); format: cell-based; conditions: 24 h, 37 °C, OD vs untreated
Procedure: as §3

Pseudomonas aeruginosa [9] = assay: Biofilm inhibition test (spectrophotometric); format: cell-based; conditions: 24 h, 37 °C, OD vs untreated
Procedure: as §3

Candida parapsilosis [10] = assay: Biofilm inhibition test (spectrophotometric); format: cell-based; conditions: 24 h, 37 °C, OD vs untreated
Procedure: as §3

Bacillus cereus [11] = assay: Biofilm inhibition test (spectrophotometric); format: cell-based; conditions: 24 h, 37 °C, OD vs untreated
Procedure: as §3

[12] = test system: Staphylococcus epidermidis; assay: Biofilm inhibition test (spectrophotometric); format: cell-based; conditions: 24 h, 37 °C, OD vs untreated
Procedure: as §3

Bacillus subtilis [13] = assay: Biofilm inhibition test (spectrophotometric); format: cell-based; conditions: 24 h, 37 °C, OD vs untreated
Procedure: as §3

Candida albicans [14] = assay: Biofilm inhibition test (spectrophotometric); format: cell-based; conditions: 24 h, 37 °C, OD vs untreated
Procedure: as §3

Candida glabrata [15] = assay: Agar-well diffusion of formulations; format: cell-based; conditions: 50 μL per 5 mm well, 37 °C
Procedure: (§4) The antimicrobial qualities of formulations were evaluated in this study using a variety of techniques. The formulations including 8 PMMA and 2 PVP, which contained varying doses of drug A (0.5% = T1, 1% = T2, 3% = T3, and 5% = T4) or drug B (0.5% = T5, 1% = T6, 3% = T7, and 5% = T8), as well as a combination of 2.5% of drug A and 2.5% of drug B (T9) were assessed. The tested human pathogens were cultivated in a nutritional broth medium containing 0.5% peptone, 0.3% yeast extract, 0.2% beef extract, 0.1% glucose, and 0.5% NaCl in accordance with 0.5 McFarland turbidity criteria.[25] To carry out the agar-well diffusion analysis, microbial cultures (100 μL) were spread on nutrient agar plates using sterile cotton swabs. After drilling each well with a sterile cork-borer of 5 mm in diameter, 50 μL of the tested formulations and the control (composed of 8 PMMA and 2 PVP) were loaded. Agar plates were thereafter left to incubate at 37 °C for an entire day. The inhibitory zone that surrounds each well was measured in millimeters (mm) using a ruler.[26]

Escherichia coli [16] = assay: Agar-well diffusion of formulations; format: cell-based; conditions: 50 μL per 5 mm well, 37 °C
Procedure: as §4

Klebsiella pneumoniae [17] = assay: Agar-well diffusion of formulations; format: cell-based; conditions: 50 μL per 5 mm well, 37 °C
Procedure: as §4

Staphylococcus aureus [18] = assay: Agar-well diffusion of formulations; format: cell-based; conditions: 50 μL per 5 mm well, 37 °C
Procedure: as §4

Candida krusei [19] = assay: Agar-well diffusion of formulations; format: cell-based; conditions: 50 μL per 5 mm well, 37 °C
Procedure: as §4

Salmonella paratyphi [20] = assay: Agar-well diffusion of formulations; format: cell-based; conditions: 50 μL per 5 mm well, 37 °C
Procedure: as §4

Pseudomonas aeruginosa [21] = assay: Agar-well diffusion of formulations; format: cell-based; conditions: 50 μL per 5 mm well, 37 °C
Procedure: as §4

Candida parapsilosis [22] = assay: Agar-well diffusion of formulations; format: cell-based; conditions: 50 μL per 5 mm well, 37 °C
Procedure: as §4

Bacillus cereus [23] = assay: Agar-well diffusion of formulations; format: cell-based; conditions: 50 μL per 5 mm well, 37 °C
Procedure: as §4

[24] = test system: Staphylococcus epidermidis; assay: Agar-well diffusion of formulations; format: cell-based; conditions: 50 μL per 5 mm well, 37 °C
Procedure: as §4

Bacillus subtilis [25] = assay: Agar-well diffusion of formulations; format: cell-based; conditions: 50 μL per 5 mm well, 37 °C
Procedure: as §4

Candida albicans [26] = assay: Agar-well diffusion of formulations; format: cell-based; conditions: 50 μL per 5 mm well, 37 °C
Procedure: as §4

[27] = test system: multidrug-resistant human pathogens; assay: Agar-well diffusion of formulations, whole panel; format: cell-based; conditions: all human pathogens investigated
Procedure: as §4

O=C(Nc1ccc(Nc2c3ccccc3nc3ccccc23)cc1)c1cc2ccccc2oc1=O [Compound B, N-(4-(acridin-9-ylamino)phenyl)-2-oxo-2H-chromene-3-carboxamide]
Antimicrobial activity (all applied pathogens): no antimicrobial activity | IC50 (MDA cells; Homo sapiens, Breast carcinoma cell): 4.27 ± 0.46 µg/mL (≈ 9.33 µM) | IC50 (A549 cells [1]; Homo sapiens, A549, lung carcinoma cells): 6.98 ± 1.99 µg/mL (≈ 15.3 µM) | IC50 (Wi-38 cells; WI-38, normal human lung fibroblast cells): 126 ± 10.9 µg/mL (≈ 276 µM) | Migration inhibition (A549 cells [2]): 87.21% | IC50 (Caco-2 cells; Homo sapiens, Caco-2, colon carcinoma cells, MTT, 48 h): 4.87 ± 1.69 µg/mL (≈ 10.6 µM) | SI Caco-2 (Caco-2 cells): 25.93 ± 2.25

Cc1ccc(-c2nnc(Nc3ccc(N)cc3)c3ccccc23)cc1 [Compound C1]
IC50 MDA (MDA cells; breast carcinoma cells): 13.98 ± 0.57 µg/mL (≈ 42.8 µM) | IC50 A549 (A549 cells [1]; lung carcinoma cells): 21.01 ± 2.05 µg/mL (≈ 64.4 µM) | IC50 Wi-38 (Wi-38 cells; normal human lung fibroblast cells): 192.7 ± 16.79 µg/mL (≈ 590 µM) | SI Caco-2 (Caco-2 cells): 15.94 ± 1.39 | IC50 Caco-2 (Caco-2 cells; colon carcinoma cells, MTT, 48 h): 12.09 ± 1.42 µg/mL (≈ 37 µM)

O=C(Nc1ccc(Nc2ccnc3cc(Cl)ccc23)cc1)c1cc2ccccc2oc1=O [Compound C2]
Biofilm reduction (Candida glabrata [3]): 6.48 ± 1.87^i % | Biofilm reduction (Escherichia coli [4]): 8.31 ± 0.75^i % | Biofilm reduction (Klebsiella pneumoniae [5]): 2.03 ± 0.77^i % | Biofilm reduction (Staphylococcus aureus [6]): 11.31 ± 0.17^i % | Biofilm reduction (Candida krusei [7]): 5.24 ± 1.22^i % | Biofilm reduction (Salmonella paratyphi [8]): 7.24 ± 0.38^i % | Biofilm reduction (Pseudomonas aeruginosa [9]): 3.65 ± 0.47^i % | Biofilm reduction (Candida parapsilosis [10]): 3.87 ± 0.14^i % | Biofilm reduction (Bacillus cereus [11]): 10.32 ± 0.19^i % | Biofilm reduction [12]: 8.29 ± 0.19^i % | Biofilm reduction (Bacillus subtilis [13]): 8.41 ± 0.31^i % | Biofilm reduction (Candida albicans [14]): 3.21 ± 0.99^i % | Inhibition zone diameters (Candida glabrata [15]): 0 mm | Inhibition zone diameters (Escherichia coli [16]): 0 mm | Inhibition zone diameters (Klebsiella pneumoniae [17]): 0 mm | Inhibition zone diameters (Staphylococcus aureus [18]): 0 mm | Inhibition zone diameters (Candida krusei [19]): 0 mm | Inhibition zone diameters (Salmonella paratyphi [20]): 0 mm | Inhibition zone diameters (Pseudomonas aeruginosa [21]): 0 mm | Inhibition zone diameters (Candida parapsilosis [22]): 0 mm | Inhibition zone diameters (Bacillus cereus [23]): 0 mm | Inhibition zone diameters [24]: 0 mm | Inhibition zone diameters (Bacillus subtilis [25]): 0 mm | Inhibition zone diameters (Candida albicans [26]): 0 mm | Antimicrobial effect [27]: neither C1 nor C2 controls have any effect
